The values that follow come from US20140163226A1, “NOVEL PYRIMIDINE DERIVATIVE AND PHARMACEUTICAL COMPOSITION INCLUDING SAME AS AN ACTIVE INGREDIENT” (HANMI PHARMACEUTICAL CO., LTD., priority 2011, published 2014).

The assay has as its target T1, DGAT1 (Homo sapiens, UniProt O75907).
T1 construct: host or cells: HepG2 cell homogenate (supernatant after sonication and 2000×g centrifugation)
T1 sequence (O75907 1-488): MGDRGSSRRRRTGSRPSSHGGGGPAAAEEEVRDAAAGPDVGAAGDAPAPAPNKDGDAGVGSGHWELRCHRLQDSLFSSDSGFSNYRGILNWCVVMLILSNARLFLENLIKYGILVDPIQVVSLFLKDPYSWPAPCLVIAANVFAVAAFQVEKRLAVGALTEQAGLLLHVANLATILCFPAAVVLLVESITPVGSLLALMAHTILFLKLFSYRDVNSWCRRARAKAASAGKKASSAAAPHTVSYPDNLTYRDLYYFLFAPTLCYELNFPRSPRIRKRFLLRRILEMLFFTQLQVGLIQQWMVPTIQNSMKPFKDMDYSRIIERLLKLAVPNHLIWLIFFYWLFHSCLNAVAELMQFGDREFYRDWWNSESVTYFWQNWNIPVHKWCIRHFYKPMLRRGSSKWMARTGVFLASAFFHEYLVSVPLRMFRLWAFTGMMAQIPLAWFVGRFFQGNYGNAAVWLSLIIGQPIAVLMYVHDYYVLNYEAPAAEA
The assay is described as follows: Assay for inhibition of DGAT1 activity (IC50), in vitro enzymatic assay using homogenates of HepG2 cell line. In kind it is biochemical. The conditions noted are these: inhibitory activity against DGAT1; HepG2 protein (25 μg), 1,2-dioleoyl-sn-glycerol (30 μM), 14C oleoyl coenzyme A (10 μM), room temperature, 60 mins. The protocol:
In order to identify DGAT1 inhibitors, in vitro enzymatic assays were performed by using homogenates of HepG2 cell line (ATCC, USA, HB-8065). Briefly stated, HepG2 cells were inoculated in 10% FBS-supplemented medium at 1.0×10^7 cells/well, cultured at 37° C., and harvested 72 hrs later. The harvested cells were lysed by ultrasonic treatment, and centrifuged for at 4° C. (2000×g, 10 mins) to remove any uncracked cells and impurities. The supernatant thus formed was obtained, and stored at −70° C. after its protein contents were quantitatively analyzed.
DGAT1 activation was assayed by a modification of the method described by Coleman (Methods in Enzymology, 1992, 209, 98-102). The compound of the present invention ([…]) was incubated with HepG2 protein (25 μg), MgCl2 (150 mM) and 1,2-dioleoyl-sn-glycerol (30 μM) in a total assay volume of 200 μL in plastic tubes.
The reaction was started by adding ^14C oleoyl coenzyme A (10 μM final concentration) and incubated at room temperature for 60 mins. The reaction was ended when a mixed solution (300 μL) of 2-propanol and heptane (7:1) was added thereto. Radioactive triolein product was separated into the organic phase by adding heptane (200 μL) and 1.0 M carbonate buffer (200 μL, pH 9.5). DGAT1 activity was quantified by counting aliquots of the upper heptane layer by liquid […].

Bounds are passed on as bounds.

For orientation: IC50 means the point on the concentration scale where inhibition reaches its midpoint. On to `O=C(Nc1ccc(-c2ncnc3c(-c4ccc(C(=O)O)cc4)csc23)cc1)Nc1cccc(Cl)c1` [Example 3, 4-(4-(4-(3-(3-chlorophenyl)ureido)phenyl)thieno[3,2-d]pyrimidin-7-yl)benzoic acid], for which the IC50 is less than 1 nM. The result for `O=C(O)CCc1ccc(-c2csc3c(-c4ccc(NC(=O)Nc5cccc(C(F)(F)F)c5F)cc4)ncnc23)cc1` [Example 55, 3-(4-(4-(4-(3-(2-fluoro-3-(trifluoromethyl)phenyl)ureido)phenyl)thieno[3,2-d]pyrimidin-7-yl)phenyl)propanoic acid] reads less than 5 nM.
